Laboratory results published in publication PMC9145865, “Effects of Rare Phytocannabinoids on the Endocannabinoid System of Human Keratinocytes” (International Journal of Molecular Sciences, 2022).
Like-named read-outs stand apart in the source and are kept apart here.

Columns and labels:
PPARδ = assay: Western blot protein expression of PPARδ; format: cell-based, human; conditions: HaCaT cells, half-IC50 dose, 24 h, vs. control
Procedure: (§1) The HaCaT cells were seeded into 6-well plates at a density of 4 × 10^4 per well, incubated overnight and then treated with the selected pCBs (6.0 µM of CBG, 4.0 µM of CBC, 9.0 µM of THCV and 13.0 µM of CBGA) for 24 h. The cell pellets were collected and then lysed in an ice-cold lysis buffer (10 mM of EDTA, 50 mM of pH 7.4 Tris–HCl, 150 mM of sodium chloride, 1% Triton-X-100, 2 mM of phenylmethylsulfonyl fluoride, 2 mM of sodium orthovanadate, […] of leupeptin and […] of aprotinin). The amount of protein was determined using the Bio-Rad Protein assay (Bio-Rad Laboratories, Hemel Hempstead, UK). An equal amount of protein (60 µg) was loaded onto 10% sodium dodecyl sulfate–polyacrylamide gels and blotted onto polyvinylidene fluoride sheets (Amersham Biosciences, Piscataway, NJ, USA). The membranes were blocked with dried 5% non-fat milk for 1 h and then incubated with suitable primary antibodies. Detection was performed using Azure Biosystems c400 (Dublin, CA, USA). The membranes were stripped using the Restore Western Blot Stripping Buffer from Thermo Fisher Scientific (Waltham, MA, USA) for 30 min under agitation at room temperature, according to the manufacturer’s instructions. The primary antibodies (Table 6) that were used were obtained from the following sources: […]

PPARα = assay: Western blot protein expression of PPARα; format: cell-based, human; conditions: HaCaT cells, half-IC50 dose, 24 h, vs. control
Procedure: as §1

NAPE-PLD = assay: Western blot protein expression of NAPE-PLD; format: cell-based, human; conditions: HaCaT cells, half-IC50 dose, 24 h, vs. control
Procedure: as §1

CB2 [1] = conditions: cited from earlier work
GPR55 = assay: qRT-PCR gene expression of GPR55; format: cell-based, human; conditions: HaCaT cells, half-IC50 dose, 24 h, vs. control
Procedure: The HaCaT cells were seeded into 6-well plates at a density of 4 × 10^4 per well, incubated overnight and then treated with the selected pCBs (CBG (6.0 µM), CBC (4.0 µM), THCV (9.0 µM) and CBGA (13.0 µM)) for 24 h. The cell pellets were collected and RT-PCR reactions were performed using the RevertAid H Minus First Strand cDNA Synthesis Kit. The relative abundance was assessed via RT quantitative PCR (RT-qPCR) using the SensiFAST SYBR Lo-ROX Kit in an Applied Biosystems 7500 Fast Real-Time PCR System (Life Technologies). To provide the precise quantification of the initial target in each PCR reaction, the amplification plot was examined, as well as the point of early log phase of the product accumulation, which was defined by assigning a fluorescence threshold above the background that was defined as the threshold cycle number or “Ct. Differences” in threshold cycle number that was used to quantify the relative amount of the PCR targets that were contained within each tube. After PCR, a dissociation curve (melting curve) was constructed in the range of 60 °C to 95 °C [62] to evaluate the specificity of the amplification products. The relative expression of the different amplicons was calculated using the delta–delta Ct (ΔΔCt) method and then converted into the relative expression ratio (2^−ΔΔCt) for statistical analysis. All data were normalized to the endogenous reference genes β-actin and glyceraldehyde-3-phosphate dehydrogenase. The specific primers (Table 5) that were used were designed and ordered from Integrated DNA Technologies (IDT; Coralville, IA, USA) with the following sequences: […]

CB2 [2] = assay: Western blot protein expression of CB2; format: cell-based, human; conditions: HaCaT cells, half-IC50 dose, 24 h, vs. control
Procedure: as §1

HaCaT cells = assay: Apoptosis, DNA fragmentation ELISA; format: cell-based, human; conditions: 24 h
Procedure: The HaCaT cells were seeded into 96-well plates at a density of 1 × 10^4 per well, incubated overnight and then treated with the selected pCBs at different concentrations (0.5 μM, 1.0 μM, 2.5 μM, 5.0 μM, 10 μM and 25 μM) for 24 h. After treatment, apoptotic cell death was quantified for specific compounds using ELISA assays, which were based on the evaluation of DNA fragmentation through an immunoassay for histone-associated DNA fragments in the cell cytoplasm. The specific determination of mono- and oligonucleosomes in the cytoplasmic fraction of cell lysates was performed by measuring the absorbance values at 405 nm, as reported in [60].

TRPV1 = assay: Western blot protein expression of TRPV1; format: cell-based, human; conditions: HaCaT cells, half-IC50 dose, 24 h, vs. control
Procedure: as §1

DAGLα/β = assay: DAGL α/β activity assay in membranes of treated cells; format: cell-based, human; conditions: HaCaT cells, half-IC50 amount, 24 h, vs. control
Procedure: DAGL α/β Assay: The HaCaT cells were seeded into 6-well plates at a density of 4 × 10^4 per well, incubated overnight and then treated with the selected pCBs (6.0 µM of CBG, 4.0 µM of CBC, 9.0 µM of THCV and 13.0 µM of CBGA) for 24 h. The cell pellets were collected and DAGL α/β activity was determined using membranes that were isolated from these cells using the synthetic substrate p-nitrophenyl butyrate (pNPB) (8 mM) in 50 mM of HEPES pH 7.3 at room temperature for 20 min [68]. The DAGLα/β inhibitor KT172 (1 μM), which was purchased from Sigma-Aldrich (St. Louis, MO, USA), was used to fully erase the enzyme activity as a control.

| Structure (SMILES) | PPARδ protein expression (in words) (PPARδ) | Protein Expression PPARδ (PPARδ) | PPARα protein expression (in words) (PPARα) | Protein Expression PPARα (PPARα) | NAPE-PLD protein expression (in words) (NAPE-PLD) | Protein Expression NAPE-PLD (NAPE-PLD) | activity at CB2 (CB2 [1]; ref [52]) | Gene Expression GPR55 (GPR55) | gene expression of GPR55 (in words) (GPR55) | CB2 protein expression (in words) (CB2 [2]) | Protein Expression CB2 (CB2 [2]) | DNA fragmentation (hallmark of apoptosis) (HaCaT cells; 25 µM) | Protein Expression TRPV1 (TRPV1) | DAGLα/β activity (DAGLα/β) | DNA fragmentation (hallmark of apoptosis) (HaCaT cells; 10 µM) | activity at CB2 (CB2 [1]; in vivo and in vitro, ref [53]) | DNA fragmentation (hallmark of apoptosis) (HaCaT cells; all doses (0.5-25 µM)) | activity at CB2 (CB2 [1]; ref [28],[50],[51]) |
| --- | --- | --- | --- | --- | --- | --- | --- | --- | --- | --- | --- | --- | --- | --- | --- | --- | --- | --- |
| CCCCCc1cc(O)c(C/C=C(\C)CCC=C(C)C)c(O)c1C(=O)O [CBGA, cannabigerolic acid] | significantly reduced | ↓++++ | significantly reduced | ↓++++ | significantly increased | NAPE-PLD ↑++++ FAAH ↑++++ DAGLα ↑++++ MAGL ↑++++ | partial agonists | GPR55 ↑+++ | significant increase | reducing | ↓++++ | significant increase | ↑++++ | – | – | – | – | – |
| CCCCCc1cc(O)c(C/C=C(\C)CCC=C(C)C)c(O)c1 [CBG, cannabigerol] | significantly reduced | ↓+++ | – | – | significantly increased | ↑++++ | partial agonists | – | – | reducing | ↓+ | significant increase | ↑++++ | increased DAGLα/β activity remarkably | induced the same effect | – | – | – |
| CCCc1cc(O)c2c(c1)OC(C)(C)[C@@H]1CCC(C)=C[C@@H]21 [THCV, Δ^9-tetrahydrocannabivarin] | significantly reduced | ↓++++ | significantly reduced | ↓++ | significantly increased | ↑++++ | – | ↑++++ | significant increase | reducing | ↓+++ | – | ↑++++ | increased DAGLα/β activity remarkably | – | partial CB2 agonist | ineffective | – |
| CCCCCc1cc(O)c2c(c1)OC(C)(CCC=C(C)C)C=C2 (centres unmarked) [CBC, cannabichromene] | significantly reduced | ↓++++ | significantly reduced | ↓++ | significantly increased | – | – | ↓++++ | reduced | reducing | ↓+ | – | ↑++++ | increased DAGLα/β activity remarkably | – | – | – | CB2 agonist |
